According to US20140088178A1, “COMBINATION OF ANTI-CLUSTERIN OLIGONUCLEOTIDE WITH ANDROGEN RECEPTOR ANTAGONIST FOR THE TREATMENT OF PROSTATE CANCER” (THE UNIVERSITY OF BRITISH COLUMBIA, priority 2011, published 2014):
e = 2'-O-(2-methoxyethyl) (MOE); d = 2'-deoxy (DNA)

Tests used:
CRPC LNCaP xenografts = test: Castration-resistant LNCaP xenograft in castrated male athymic nude mice; type: in vivo; conditions: week 16 from start of treatment; euthanasia for tumour volume exceeding 10% of body weight
Experimental: The effects of combination treatment on castration-resistant LNCaP tumor growth were assessed in castrated male athymic nude mice. Male athymic nude mice were inoculated with LNCaP cells in Matrigel in two sites of mouse flank lesion. […]. Custirsen (10 mg/kg/each dose) or SCRB (10 mg/kg/each dose) was injected i.p. once daily for the first week and then three times per week. […] Tumor volume was measured once per week. Serum PSA was determined weekly. PSA doubling time (PSAdt) and velocity were calculated by the log-slope method (PSAt−PSAinitial×e^mt). All animal procedures were performed according to the guidelines of the Canadian Council on Animal Care and appropriate institutional certification.
Male athymic mice (Harlan Sprague-Dawley, Inc.) were injected s.c. with 1×10^6 LNCaP cells. When tumors grow in 150 mm^3 and serum PSA was >50 ng/ml, mice are castrated. […] Each experimental group consisted of 13 mice. […] Tumor volume and serum PSA was measured as previously described (Sowery et al., 2008). All animal procedures were performed according to the guidelines of the Canadian Council on Animal Care. Each three mice xenografts were sacrificed at 7 days after start treatment and the rest were harvested the end of the study and snap-frozen in liquid nitrogen. […]

clusterin (CLU) = test: Western blot of clusterin (CLU) expression after AR pathway inhibition; type: cell-based, human
Experimental: The immune complexes were recovered with protein-G sepharose for 2 h and then washed with radioimmunoprecipitation assay buffer (RIPA) at least thrice, centrifuged, and submitted to SDS-PAGE, followed by Western blotting. […] Cells are harvested and performed for western blot analysis.

[1] = tested on: GRP78, ATF4, IRE1, CHOP and cleaved-ATF6; test: ER stress marker expression after AR1; type: cell-based; conditions: concomitant with CLU induction
Source text: ER stress activates a complex intracellular signaling pathway, called the unfolded protein response (UPR), which is tailored to re-establish protein homeostasis (proteostasis) by inhibiting protein translation and promoting ER-associated protein degradation via the ubiquitin-proteasome system (UPS).

[2] = tested on: Akt and p90Rsk phosphorylation; test: Western blot of Akt and p90Rsk phosphorylation; type: cell-based, human; conditions: FIG. 42B
Experimental: YB-1 binds to CLU promoter leading to increased CLU expression after ER stress (Shiota et al., 2011). […]. Western blot analysis is done using phospho Akt, phospho ERK, Akt and ERK antibodies. […]. […] After 48 h treatment, western blot analysis is done using phospho Akt, phospho ERK, phospho mTOR, phospho P70S6K, Akt, ERK, mTOR and P70S6K antibodies.

LNCaP cells [3] = test: Autophagy induction; type: cell-based, human
[4] = humans; cited from earlier work
LNCaP cells [5] = test: Flow cytometry of apoptotic sub-G1 fraction (propidium iodide staining); type: cell-based, human; conditions: 500 nmol/L custirsen or ScrB, 10 μmol/L AR1, 48 hrs
Experimental: After a time course exposure, cell growth was measured by crystal violet assay as previously described (cleave et al., 2005). Detection and quantitation of apoptotic cell cycle population were analyzed by flow-cytometry (Beckman Coulter Epics Elite; Beckman, Inc.) based on 2N and 4N DNA content as previously described (Lamoureux et al., 2011). For CSS condition, LNCaP cells were plated in RPMI with 5% FBS switched to CSS at the next day, and treatment was started same as FBS condition. Each assay was done in triplicate three times.
Combination treatment enhances LNCaP apoptosis in flow cytometry analysis. […] The proportion of cells in sub-G0, G0-G1, S, G2-M is determined by propidium iodide staining. […] P value represents between treatment arms and their respective controls *p<0.05, **p<0.01, ***p<0.001 (Wilcoxon matched-pairs test).

[6] = tested on: AR transcriptional activity; test: PSA-luciferase reporter assay of R1881 induced AR transcriptional activity; type: cell-based, human; conditions: LNCaP cells; 500 nmol/L custirsen, 10 μmol/L AR1, 1 nmol/L R1881
Experimental: Effect of combination treatment on AR transactivation and translocation. […] Cells were harvested, and luciferase activity was determined. Columns represent means of at least three independent experiments done in triplicate. PSA activation was normalized Renilla-luciferase activity.
LNCaP cells were seeded at a density of 5×10^4 in 12-well plates and transfected the following day with custirsen or SCRB. […] Reporter assays were normalized to Renilla and luciferase activity expressed by Firefly to Renilla ratio in arbitrary light units. All experiments were carried out in triplicate wells and repeated five times using different preparations of plasmids.
The effects of combination treatment on androgen-induced, AR-mediated gene activation were evaluated.

CRPC = conditions: combined with docetaxel chemotherapy; cited from earlier work
AR = target: T1, AR (Homo sapiens, UniProt P10275, T878A); test: Western blot of AR protein expression; conditions: FIG. 17: LNCaP, 500 nM custirsen 48 h, then 10 μM AR1 48 hours
T1 sequence (P10275 1-920 T878A): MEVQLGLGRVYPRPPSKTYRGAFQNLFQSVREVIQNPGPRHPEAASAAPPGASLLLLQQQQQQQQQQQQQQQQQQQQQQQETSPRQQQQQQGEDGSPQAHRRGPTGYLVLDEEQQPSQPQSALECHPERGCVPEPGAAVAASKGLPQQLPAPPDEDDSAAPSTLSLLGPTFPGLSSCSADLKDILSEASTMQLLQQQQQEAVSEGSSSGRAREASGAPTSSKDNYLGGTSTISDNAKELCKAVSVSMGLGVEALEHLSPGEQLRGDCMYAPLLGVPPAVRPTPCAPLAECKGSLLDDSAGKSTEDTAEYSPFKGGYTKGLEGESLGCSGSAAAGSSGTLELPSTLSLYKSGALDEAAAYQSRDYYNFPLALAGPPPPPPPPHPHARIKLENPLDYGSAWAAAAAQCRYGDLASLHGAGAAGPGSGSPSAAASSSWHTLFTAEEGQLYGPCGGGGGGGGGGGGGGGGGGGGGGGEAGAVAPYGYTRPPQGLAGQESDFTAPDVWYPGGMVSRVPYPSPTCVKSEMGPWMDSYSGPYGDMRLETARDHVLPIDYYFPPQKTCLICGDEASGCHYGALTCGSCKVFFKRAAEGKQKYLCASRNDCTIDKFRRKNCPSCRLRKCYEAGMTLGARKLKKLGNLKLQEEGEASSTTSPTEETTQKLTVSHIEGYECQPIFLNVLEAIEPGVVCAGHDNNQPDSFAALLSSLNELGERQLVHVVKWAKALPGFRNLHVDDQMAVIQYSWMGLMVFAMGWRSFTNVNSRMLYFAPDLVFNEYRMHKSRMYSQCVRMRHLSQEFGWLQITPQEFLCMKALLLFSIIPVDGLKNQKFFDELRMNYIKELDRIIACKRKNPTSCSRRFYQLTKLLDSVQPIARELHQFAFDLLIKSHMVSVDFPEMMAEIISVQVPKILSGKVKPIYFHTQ
Experimental: Cells (1×10^6) were seeded in 10 cm dishes with RPMI medium containing 5% FBS. The next day, cells were transfected with 500 nM custirsen or control for 48 h.
AR expression is detected by western blot. […] “OTR” means cells treated with oligofectamime only.

Compound: CNC(=O)c1ccc(N2C(=S)N(c3ccc(C#N)c(C(F)(F)F)c3)C(=O)C2(C)C)cc1F [AR1, 4-(3-(4-cyano-3-(trifluoromethyl)phenyl)-5,5-dimethyl-4-oxo-2-thioxoimidazolidin-1-yl)-2-fluoro-N-methylbenzamide]
- overall survival (CRPC LNCaP xenografts): about 40%
- clusterin protein expression (clusterin (CLU); LNCaP, 10 μmol/L for 48 hrs, 5% FBS or 5% CSS, western blot): strongly increases
- ER stress markers [1]: up-regulation
- Akt and p90Rsk phosphorylation [2]: increases
- autophagy (LNCaP cells [3]): induces autophagy
- maximum tolerated dose [4]: 240 mg/day
- side effects [4]: fatigue

Compound: CC(=O)O[C@@H]1[C@@H](OC(C)=O)[C@@H](O)[C@H](Oc2c(-c3ccc(O)cc3)oc3cc(O)cc(O)c3c2=O)O[C@H]1C [SL101]
- effect on AR1 induced up-regulation of CLU (clusterin (CLU); inhibitor added with AR1): abrogates

Compound: ScrB: scrambled antisense oligonucleotide control, 5′-CAGCGCTGACAACAGTTTCAT-3′ (SEQ ID NO: 44) (2'-O-methoxyethyl modified control oligonucleotide, pattern not given here, further chemistry not given here)
- apoptosis (sub-G1 fraction) (LNCaP cells [5]): 15.2%

Compound: custirsen: antisense oligonucleotide reducing clusterin expression, CAGCAGCAGAGTCTTCATCAT (Seq. ID No.: 3), phosphorothioate backbone, 2′-O-methoxyethyl at nucleotides 1-4 and 18-21 (sugars from the 5' end e4 d13 e4, all phosphorothioate, methylation of C not given here; listed as Homo sapiens)
- apoptosis (sub-G1 fraction) (LNCaP cells [5]): 20%
- reduction of R1881 induced AR transcriptional activity (PSA luciferase transactivation) [6]: 90%
- HR (CRPC): 0.50
- gain in overall survival (CRPC): 7 month
- reduced death rate (CRPC): 50%
- reduction of AR protein expression (AR): no effect
